According to patent US12064426B2, “Selective inhibitors of ROCK1 and ROCK2 protein kinases and uses thereof” (GENOSCO Inc., priority 2021, dated 2024):

Tests used:
[1] = biological target: T1, Recombinant ROCK1 (amino acids 1-477) (Homo sapiens, UniProt Q13464); assay: ROCK inhibition assay, LANCE Ultra TR-FRET kinase assay (ROCK1); type: biochemical; settings: 1 μM ATP, 50 nM ULight-CREBtide substrate
T1 construct: Recombinant ROCK1 (amino acids 1-477); by word order, ROCK1 from Carna Biosciences
T1 sequence (Q13464 1-477): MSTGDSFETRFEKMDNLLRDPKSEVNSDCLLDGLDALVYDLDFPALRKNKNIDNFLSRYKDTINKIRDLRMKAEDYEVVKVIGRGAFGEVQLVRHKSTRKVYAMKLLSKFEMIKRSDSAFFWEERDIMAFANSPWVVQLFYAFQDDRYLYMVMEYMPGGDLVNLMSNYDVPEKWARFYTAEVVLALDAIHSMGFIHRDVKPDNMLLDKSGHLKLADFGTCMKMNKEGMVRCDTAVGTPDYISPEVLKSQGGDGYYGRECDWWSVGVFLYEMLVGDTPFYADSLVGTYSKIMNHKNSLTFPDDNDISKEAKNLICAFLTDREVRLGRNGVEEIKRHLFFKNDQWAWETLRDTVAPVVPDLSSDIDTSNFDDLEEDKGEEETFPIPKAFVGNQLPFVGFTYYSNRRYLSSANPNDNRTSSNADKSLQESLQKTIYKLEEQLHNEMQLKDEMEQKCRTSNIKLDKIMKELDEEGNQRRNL
In short: (§1)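 Reaction buffer 50 mM HEPES pH 7.5, 10 mM MgCl2, 1 mM EGTA, 2 mM DTT; kinase, ULight-CREBtide (50 nM) and ATP (ROCK1 1 μM, ROCK2 4 μM) react 1 h at room temperature. Phospho-Ser133 detected by europium antibody after 10 mM EDTA stop, TR-FRET ex 320 nm; IC50 calculated.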

[2] = biological target: T2, Recombinant ROCK2 (amino acids 5-554) (Homo sapiens, UniProt O75116); assay: ROCK inhibition assay, LANCE Ultra TR-FRET kinase assay (ROCK2); type: biochemical; settings: 4 μM ATP, 50 nM ULight-CREBtide substrate
T2 construct: ROCK2 (amino acids 5-554); by word order, ROCK2 from SignalChem
T2 sequence (O75116 5-554): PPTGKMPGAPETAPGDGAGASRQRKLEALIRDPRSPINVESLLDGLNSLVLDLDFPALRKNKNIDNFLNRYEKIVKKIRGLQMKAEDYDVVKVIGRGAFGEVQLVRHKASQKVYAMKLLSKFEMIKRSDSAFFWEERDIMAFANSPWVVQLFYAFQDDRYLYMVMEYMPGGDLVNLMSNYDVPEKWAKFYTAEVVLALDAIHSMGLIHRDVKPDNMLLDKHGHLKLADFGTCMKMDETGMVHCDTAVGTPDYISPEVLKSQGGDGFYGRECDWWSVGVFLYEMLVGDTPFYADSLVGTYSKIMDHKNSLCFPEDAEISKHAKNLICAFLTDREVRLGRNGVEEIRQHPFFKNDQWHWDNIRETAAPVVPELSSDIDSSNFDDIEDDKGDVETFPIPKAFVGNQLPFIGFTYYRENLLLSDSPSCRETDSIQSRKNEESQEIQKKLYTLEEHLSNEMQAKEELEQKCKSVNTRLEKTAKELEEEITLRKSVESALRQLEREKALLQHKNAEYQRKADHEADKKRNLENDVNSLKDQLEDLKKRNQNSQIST
In short: as §1

Row | SMILES | IC50 [1] [µM] | IC50 [2] [µM]
1 | O=c1c2ccc(-c3c[nH]nc3Cl)cc2ccn1Cc1cccc(O)c1 [Compound 20] | < 0.01 | < 0.01
2 | Cn1nccc1-c1ccc2c(=O)n(Cc3cccc(C(=O)NC4CCOCC4)c3)ccc2c1 [Compound 104] | 0.101 to 0.5 | 0.01 to 0.1
3 | Cc1nocc1-c1ccc2c(=O)n(Cc3cccc(C(=O)NCCN4CCN(C)CC4)c3)ccc2c1 [Compound 70] | < 0.01 | < 0.01
4 | Cn1nccc1-c1ccc2c(=O)n(Cc3cccc(C(=O)N[C@H]4CC[C@H](O)CC4)c3)ccc2c1 [Compound 115] | 0.101 to 0.5 | 0.01 to 0.1
5 | CNC(=O)c1cccc(C(C)n2ccc3cc(-c4cn[nH]c4Cl)ccc3c2=O)c1 (stereo not drawn) [Compound 292] | 0.011 to 0.1 | < 0.01
6 | Cc1nocc1-c1ccc2c(=O)n(Cc3cc(F)cc(C(=O)NCCN4CCN(C)CC4)c3)ccc2c1 [Compound 144] | 0.011 to 0.1 | < 0.01
7 | CNC(=O)c1cccc(C(C)n2ccc3cc(-c4cn[nH]c4C(F)(F)F)ccc3c2=O)c1 (stereo not drawn) [Compound 279] | 0.011 to 0.1 | < 0.01
8 | Cc1nocc1-c1ccc2c(=O)n(Cc3cccc(C(=O)NC4CCNCC4)c3)ccc2c1 [Compound 85] | 0.011 to 0.1 | < 0.01
9 | Cn1nccc1-c1ccc2c(=O)n(Cc3cccc(C(=O)NC4COC4)c3)ccc2c1 [Compound 110] | 0.101 to 0.5 | < 0.01
10 | Cc1n[nH]cc1-c1cc2ccn(Cc3cc(F)cc(C(=O)NCC4CCN(C)CC4)c3)c(=O)c2cn1 [Compound 256] | < 0.01 | < 0.01
11 | [2H]C([2H])([2H])NC(=O)c1cccc(C(C)n2ccc3cc(-c4cn[nH]c4C(F)F)ccc3c2=O)c1 (stereo not drawn) [Compound 288] | 0.011 to 0.1 | < 0.01
12 | Cn1nccc1-c1ccc2c(=O)n(Cc3cccc(C(=O)NCc4ccnc(F)c4)c3)ccc2c1 [Compound 117] | 0.101 to 0.5 | 0.01 to 0.1
13 | O=C(NCC1CCOCC1)c1cc(F)cc(Cn2ccc3cc(-c4c[nH]nc4C(F)(F)F)ccc3c2=O)c1 [Compound 135] | 0.101 to 0.5 | 0.01 to 0.1
14 | Cc1n[nH]cc1-c1ccc2c(=O)n(Cc3cccc(C(=O)Nc4ccc(NS(C)(=O)=O)cc4)c3)ccc2c1 [Compound 37] | > 0.501 | 0.1 to 0.5
15 | Cn1ccc(NC(=O)c2cc(F)cc(Cn3ccc4cc(-c5ccnn5C)ccc4c3=O)c2)n1 [Compound 179] | 0.011 to 0.1 | < 0.01
16 | Cc1nocc1-c1ccc2c(=O)n(Cc3cc(F)cc(C(=O)Nc4ccc5c(c4)CCNC5)c3)ccc2c1 [Compound 162] | < 0.01 | < 0.01

Row | SMILES | IC50 [1] [µM] | IC50 [2] [µM]
17 | CN1CCC(CNC(=O)c2cc(F)cc(Cn3ccc4cc(-c5c[nH]nc5C(F)F)ncc4c3=O)c2)CC1 [Compound 274] | < 0.01 | < 0.01
18 | CNC(=O)c1cccc(Cn2ccc3cc(-c4cn[nH]c4Cl)ccc3c2=O)c1 [Compound 290] | 0.011 to 0.1 | < 0.01
19 | Cc1nocc1-c1ccc2c(=O)n(Cc3cc(F)cc(C(=O)Nc4ccc5c(c4)CCN(C)C5)c3)ccc2c1 [Compound 163] | < 0.01 | < 0.01
20 | Nc1cc(-c2ccc3c(=O)n(Cc4cccc(C(=O)N[C@H]5CC[C@@H](O)CC5)c4)ccc3c2)ccn1 [Compound 192] | 0.011 to 0.1 | 0.01 to 0.1
21 | Nc1cc(-c2ccc3c(=O)n(Cc4cccc(C(=O)Nc5ccno5)c4)ccc3c2)ccn1 [Compound 203] | > 0.501 | 0.1 to 0.5
22 | NCc1ccccc1CNC(=O)c1cccc(Cn2ccc3cc(-c4ccnc(N)c4)ccc3c2=O)c1 [Compound 183] | 0.101 to 0.5 | 0.01 to 0.1
23 | Cn1nccc1-c1ccc2c(=O)n(Cc3cc(F)cc(C(=O)NCC4CCNCC4)c3)ccc2c1 [Compound 173] | 0.011 to 0.1 | < 0.01
24 | CNC(=O)c1cccc(Cn2ccc3cc(-c4ccnn4C)ncc3c2=O)c1 [Compound 240] | 0.101 to 0.5 | 0.01 to 0.1
25 | O=C(NCC1CCN(C2CC2)CC1)c1cc(F)cc(Cn2ccc3cc(N4CCOCC4)ccc3c2=O)c1 [Compound 226] | 0.101 to 0.5 | 0.01 to 0.1
26 | O=C(NCC1CCN(CC(F)F)CC1)c1cccc(Cn2ccc3cc(N4CCOCC4)ccc3c2=O)c1 [Compound 219] | 0.101 to 0.5 | 0.01 to 0.1
27 | CNC(=O)c1cccc(Cn2ccc3cc(-c4c[nH]nc4C)ncc3c2=O)c1 [Compound 239] | 0.011 to 0.1 | < 0.01
28 | CN1CCC(CNC(=O)c2cccc(Cn3ccc4cc(-c5c[nH]nc5C(F)(F)F)ccc4c3=O)c2)CC1 [Compound 51] | < 0.01 | < 0.01
29 | O=C(N[C@H]1CC[C@H](O)CC1)c1cccc(Cn2ccc3cc(N4CCOCC4)ccc3c2=O)c1 [Compound 213] | > 0.501 | 0.1 to 0.5
30 | O=C(NCC1CCN(C2CC2)CC1)c1cccc(Cn2ccc3cc(N4CCOCC4)ccc3c2=O)c1 [Compound 225] | 0.101 to 0.5 | 0.01 to 0.1
31 | Cc1nocc1-c1ccc2c(=O)n(Cc3cccc(C(=O)N[C@H]4CC[C@@H](O)CC4)c3)ccc2c1 [Compound 74] | 0.101 to 0.5 | 0.01 to 0.1
32 | CN(C)CCNC(=O)c1cccc(Cn2ccc3cc(-c4ccnn4C)ccc3c2=O)c1 [Compound 119] | 0.011 to 0.1 | < 0.01

The remaining lines, values ahead:

Row | IC50 [1] [µM] | IC50 [2] [µM] | SMILES
33 | < 0.01 | < 0.01 | COc1cccc(C(CN)n2cnc3cc(-c4cn[nH]c4C(F)(F)F)ccc3c2=O)c1 (stereo not drawn) [Compound 499]
34 | 0.011 to 0.1 | 0.01 to 0.1 | Nc1cc(-c2ccc3c(=O)n(Cc4cccc(C(=O)NCC5CCOCC5)c4)cnc3c2)ccn1 [Compound 438]
35 | 0.101 to 0.5 | 0.01 to 0.1 | CC(=O)Nc1cccc(Cn2ccc3cc(-c4conc4C)ccc3c2=O)c1 [Compound 347]
36 | 0.011 to 0.1 | < 0.01 | CNC(=O)c1cccc(C(C)n2cnc3cc(-c4ccnn4C)ccc3c2=O)c1 (stereo not drawn) [Compound 426]
37 | > 0.501 | 0.1 to 0.5 | N#Cc1cccc(C(CN)n2cnc3cc(-c4cn[nH]c4C(F)(F)F)ccc3c2=O)c1 (stereo not drawn) [Compound 503]
38 | 0.011 to 0.1 | < 0.01 | [2H]C([2H])([2H])NC(=O)c1cccc([C@@H](C)n2cnc3cc(-c4cn[nH]c4Cl)ccc3c2=O)c1 [Compound 467]
39 | 0.011 to 0.1 | < 0.01 | CNC(=O)c1cc(F)cc(C(C)n2cnc3cc(-c4cn[nH]c4C(F)(F)F)ccc3c2=O)c1 (stereo not drawn) [Compound 388]
40 | > 0.501 | > 0.5 | C[C@H](c1cccc(C(=O)N(C)Cc2ccncc2)c1)n1cnc2cc(-c3cn[nH]c3C(F)(F)F)ccc2c1=O [Compound 446]
41 | 0.101 to 0.5 | 0.01 to 0.1 | CNC(=O)c1cccc(C(C)n2ccc3cc(-c4ccnn4C)ccc3c2=O)c1 (stereo not drawn) [Compound 322]
42 | 0.101 to 0.5 | 0.1 to 0.5 | CNC(=O)c1cc(Cl)cc(Cn2ccc3cc(-c4ccnn4C)ccc3c2=O)c1 [Compound 324]
43 | 0.101 to 0.5 | 0.01 to 0.1 | CC(=O)Nc1cc(F)cc(Cn2ccc3cc(-c4conc4C)ccc3c2=O)c1 [Compound 351]
44 | 0.011 to 0.1 | < 0.01 | CNC(=O)c1cccc([C@@H](C)n2cnc3cc(-c4cn[nH]c4C(F)(F)F)ncc3c2=O)c1 [Compound 568, (R)—N-methyl-3-(1-(4-oxo-7-(5-(trifluoromethyl)-1H-pyrazol-4-yl)pyrido[4,3-d]pyrimidin-3(4H)-yl)ethyl)benzamide]
45 | 0.011 to 0.1 | < 0.01 | [2H]C([2H])([2H])NC(=O)c1cc(F)cc(Cn2cnc3cc(-c4conc4C)ccc3c2=O)c1 [Compound 423]
46 | < 0.01 | < 0.01 | CNC(=O)c1cccc(Cn2cc(C(C)O)c3cc(-c4c[nH]nc4C(F)(F)F)ccc3c2=O)c1 (stereo not drawn) [Compound 532, 3-((4-(1-hydroxyethyl)-1-oxo-6-(3-(trifluoromethyl)-1H-pyrazol-4-yl)isoquinolin-2(1H)-yl)methyl)-N-methylbenzamide]
47 | 0.011 to 0.1 | < 0.01 | CNC(=O)c1cccc(Cn2cc(Cl)c3cc(-c4conc4C)ccc3c2=O)c1 [Compound 310]
48 | < 0.01 | < 0.01 | CC(O)c1cn(Cc2cccc(C(=O)NCCc3ccccn3)c2)c(=O)c2ccc(-c3c[nH]nc3Cl)cc12 (stereo not drawn) [Compound 543]
49 | 0.011 to 0.1 | < 0.01 | CNC(=O)c1cccc([C@@H](C)n2cnc3cc(-c4cn[nH]c4Br)ccc3c2=O)c1 [Compound 509, (R)-3-(1-(7-(5-bromo-1H-pyrazol-4-yl)-4-oxoquinazolin-3(4H)-yl)ethyl)-N-methylbenzamide]
50 | 0.101 to 0.5 | 0.01 to 0.1 | O=C(Nc1cccc(Cn2ccc3cc(-c4c[nH]nc4C(F)F)ccc3c2=O)c1)C1COC1 [Compound 343]
51 | 0.011 to 0.1 | < 0.01 | C[C@H](c1cccc(C(=O)Nc2ccc(F)cc2)c1)n1cnc2cc(-c3cn[nH]c3Br)ccc2c1=O [Compound 517]
52 | 0.101 to 0.5 | 0.01 to 0.1 | CNC(=O)c1cc([C@@H](C)n2cnc3cc(-c4cn[nH]c4C(F)(F)F)ccc3c2=O)ccc1F [Compound 456]
53 | 0.011 to 0.1 | 0.01 to 0.1 | COc1cccc(C(CO)n2cnc3cc(-c4cn[nH]c4Cl)ccc3c2=O)c1 (stereo not drawn) [Compound 491]
54 | > 0.501 | 0.1 to 0.5 | NCC(c1cccc(C(N)=O)c1)n1cnc2cc(-c3cn[nH]c3Cl)ccc2c1=O (stereo not drawn) [Compound 508]
55 | < 0.01 | < 0.01 | CN1CCC(CNC(=O)c2cccc(Cn3cnc4cc(-c5cn[nH]c5C(F)F)ccc4c3=O)c2)CC1 [Compound 395]
56 | 0.011 to 0.1 | < 0.01 | Cc1nocc1-c1ccc2c(=O)n(Cc3cccc(C(=O)NCCN4CCOCC4)c3)cnc2c1 [Compound 420]
57 | < 0.01 | < 0.01 | Cc1nocc1-c1ccc2c(=O)n(Cc3cccc(C(=O)NCCc4cccnc4)c3)cnc2c1 [Compound 419]
